{"source": "patent US5281603A", "about": "“Angiotensin II receptor blocking 2,3,6 substituted quinazolinones” (American Cyanamid Company, priority 1993, dated 1994)", "test_system": "Angiotensin II vasopressor response", "assay": "AII challenge: antagonism of angiotensin II vasopressor response in conscious spontaneously hypertensive rats", "assay_type": "in vivo, rat (Male Okamoto-Aoki SHR)", "settings": "3 mg/kg I.V.; for % Inhibition / Average Change: SHR n=2; for Response After AII / Change / Control Before AII: individual SHR", "text": "By administering a compound of this invention to a rat, and then challenging with angiotensin II, a blockage of the vasopressor response is realized.\nConscious Male Okamoto-Aoki SHR, 16-20 weeks old, weighing approximately 330 g are purchased from Charles River Labs (Wilmington, Mass.). Conscious rats are restrained in a supine position with elastic tape. The area at the base of the tail is locally anesthetized by subcutaneous infiltration with 2% procaine. The ventral caudal artery and vein are isolated, and a cannula made of polyethylene (PE) 10-20 tubing (fused together by heat) is passed into the lower abdominal aorta and vena cava, respectively. The cannula is secured, heparinized (1,000 I.U./ml), sealed and the wound is closed. The animals are placed in plastic restraining cages in an upright position. The cannula is attached to a Statham P23Db pressure transducer, and pulsatile blood pressure is recorded to 10-15 minutes with a Gould Brush recorder. (Chan et al., (Drug Development Res., 18:75-94, 1989).\nAngiotensin II (human sequence, Sigma Chem. Co., St. […] Then a test compound, vehicle or a known angiotensin II antagonist is administered i.v., i.p. or orally to each set of rats. The two doses of angiotensin II are given to each rat again at 30, 60, 90, 120, 180, 240 and 300 minutes post dosing the compound or vehicle. The vasopressor response of angiotensin II is measured for the increase in systolic blood pressure in mmHg. The percentage of antagonism or blockade of the vasopressor response of angiotensin II by a compound is calculated using the vasopressor response (increase in systolic blood pressure) of angiotensin II of each rat predosing the compound as 100%. A compound is considered active if at 30 mg/kg i.v. it antagonized at least 50% of the response.", "key": {"[1]": {"settings": "AII 0.01 mcg/kg IV (so in the source), 60 min post dose"}, "[2]": {"settings": "AII 0.01 mcg/kg IV (so in the source), 90 min post dose"}, "[3]": {"settings": "AII 0.05 mcg/kg IV, 30 min post dose"}, "[4]": {"settings": "AII 0.05 mcg/kg IV, 60 min post dose"}, "[5]": {"settings": "AII 0.05 mcg/kg IV, 90 min post dose"}, "[6]": {"settings": "AII 0.05 mcg/kg IV, 120 min post dose"}, "[7]": {"settings": "AII 0.05 mcg/kg IV, 180 min post dose"}, "[8]": {"settings": "AII 0.05 mcg/kg IV, 240 min post dose"}, "[9]": {"settings": "AII 0.05 mcg/kg IV, 300 min post dose"}, "[10]": {"settings": "AII 0.1 mcg/kg IV, 30 min post dose"}, "[11]": {"settings": "AII 0.1 mcg/kg IV, 120 min post dose"}, "[12]": {"settings": "AII 0.1 mcg/kg IV, 180 min post dose"}, "[13]": {"settings": "AII 0.1 mcg/kg IV, 240 min post dose"}, "[14]": {"settings": "AII 0.1 mcg/kg IV, 300 min post dose"}, "[15]": {"settings": "AII 0.01 mcg/kg IV (so in the source), 60 min post dose, 3 mg/kg"}, "[16]": {"settings": "AII 0.01 mcg/kg IV (so in the source), 90 min post dose, 3 mg/kg"}, "[17]": {"settings": "AII 0.05 mcg/kg IV, 30 min post dose, 3 mg/kg"}, "[18]": {"settings": "AII 0.05 mcg/kg IV, 60 min post dose, 3 mg/kg"}, "[19]": {"settings": "AII 0.05 mcg/kg IV, 90 min post dose, 3 mg/kg"}, "[20]": {"settings": "AII 0.05 mcg/kg IV, 120 min post dose, 3 mg/kg"}, "[21]": {"settings": "AII 0.05 mcg/kg IV, 180 min post dose, 3 mg/kg"}, "[22]": {"settings": "AII 0.05 mcg/kg IV, 240 min post dose, 3 mg/kg"}, "[23]": {"settings": "AII 0.05 mcg/kg IV, 300 min post dose, 3 mg/kg"}, "[24]": {"settings": "AII 0.1 mcg/kg IV, 30 min post dose, 3 mg/kg"}, "[25]": {"settings": "AII 0.1 mcg/kg IV, 120 min post dose, 3 mg/kg"}, "[26]": {"settings": "AII 0.1 mcg/kg IV, 180 min post dose, 3 mg/kg"}, "[27]": {"settings": "AII 0.1 mcg/kg IV, 240 min post dose, 3 mg/kg"}, "[28]": {"settings": "AII 0.1 mcg/kg IV, 300 min post dose, 3 mg/kg"}}, "note": "Values joined by “and” are separate entries in the source; they are usually repeats but may differ in a detail not shown here. Identical values can stand only once.", "data": [{"smiles": "CCCCc1nc2ccc([C@@]3(C)NN[C@@H]4C(=O)N(C)C(=O)[C@@H]43)cc2c(=O)n1Cc1ccc(-c2ccccc2-c2nnn[nH]2)cc1", "note": "(relative stereo) [Example 10, (3-alpha,3aalpha,6aalpha)-3-[2-butyl-3,4-dihydro-4-oxo-3-[[2'-(1H-tetrazol-5-yl)-[1,1'-biphenyl]-4-yl]methyl]-6-quinazolinyl]-2,3,3a,6a-tetrahydro-3,5-dimethyl-pyrrolo[3,4-c]pyrazole-4,6(1H,5H)-dione]", "values": [{"measurement": "% Inhibition", "setting": "[1]", "value": 53, "unit": "%"}, {"measurement": "Average Change", "setting": "[1]", "value": 22.5, "unit": "mmHg"}, {"measurement": "% Inhibition", "setting": "[2]", "value": 47, "unit": "%"}, {"measurement": "Average Change", "setting": "[2]", "value": 25, "unit": "mmHg"}, {"measurement": "% Inhibition", "setting": "[3]", "value": 66, "unit": "%"}, {"measurement": "Average Change", "setting": "[3]", "value": 16, "unit": "mmHg"}, {"measurement": "% Inhibition", "setting": "[4]", "value": 68, "unit": "%"}, {"measurement": "Average Change", "setting": "[4]", "value": 15, "unit": "mmHg"}, {"measurement": "% Inhibition", "setting": "[5]", "value": 63, "unit": "%"}, {"measurement": "Average Change", "setting": "[5]", "value": 17.5, "unit": "mmHg"}, {"measurement": "% Inhibition", "setting": "[6]", "value": 47, "unit": "%"}, {"measurement": "Average Change", "setting": "[6]", "value": 25, "unit": "mmHg"}, {"measurement": "% Inhibition", "setting": "[7]", "value": 47, "unit": "%"}, {"measurement": "Average Change", "setting": "[7]", "value": 25, "unit": "mmHg"}, {"measurement": "% Inhibition", "setting": "[8]", "value": 47, "unit": "%"}, {"measurement": "Average Change", "setting": "[8]", "value": 25, "unit": "mmHg"}, {"measurement": "% Inhibition", "setting": "[9]", "value": 32, "unit": "%"}, {"measurement": "Average Change", "setting": "[9]", "value": 32.5, "unit": "mmHg"}, {"measurement": "% Inhibition", "setting": "[10]", "value": 53, "unit": "%"}, {"measurement": "Average Change", "setting": "[10]", "value": 22.5, "unit": "mmHg"}, {"measurement": "% Inhibition", "setting": "[11]", "value": 47, "unit": "%"}, {"measurement": "Average Change", "setting": "[11]", "value": 25, "unit": "mmHg"}, {"measurement": "% Inhibition", "setting": "[12]", "value": 37, "unit": "%"}, {"measurement": "Average Change", "setting": "[12]", "value": 30, "unit": "mmHg"}, {"measurement": "% Inhibition", "setting": "[13]", "value": 40, "unit": "%"}, {"measurement": "Average Change", "setting": "[13]", "value": 28.5, "unit": "mmHg"}, {"measurement": "% Inhibition", "setting": "[14]", "value": 23, "unit": "%"}, {"measurement": "Average Change", "setting": "[14]", "value": 36.5, "unit": "mmHg"}, {"measurement": "Response After AII", "setting": "[1]", "value": 250, "unit": "mmHg"}, {"measurement": "Change", "setting": "[15]", "value": "25 mmHg and 20 mmHg"}, {"measurement": "Control Before AII", "setting": "[15]", "value": "225 mmHg and 230 mmHg"}, {"measurement": "Change", "setting": "[2]", "value": 25, "unit": "mmHg"}, {"measurement": "Control Before AII", "setting": "[16]", "value": "225 mmHg and 230 mmHg"}, {"measurement": "Response After AII", "setting": "[16]", "value": "250 mmHg and 255 mmHg"}, {"measurement": "Change", "setting": "[17]", "value": "20 mmHg and 12 mmHg"}, {"measurement": "Control Before AII", "setting": "[17]", "value": "220 mmHg and 245 mmHg"}, {"measurement": "Response After AII", "setting": "[17]", "value": "240 mmHg and 257 mmHg"}, {"measurement": "Change", "setting": "[4]", "value": 15, "unit": "mmHg"}, {"measurement": "Control Before AII", "setting": "[18]", "value": "220 mmHg and 225 mmHg"}, {"measurement": "Response After AII", "setting": "[18]", "value": "235 mmHg and 240 mmHg"}, {"measurement": "Change", "setting": "[19]", "value": "20 mmHg and 15 mmHg"}, {"measurement": "Control Before AII", "setting": "[19]", "value": "215 mmHg and 225 mmHg"}, {"measurement": "Response After AII", "setting": "[19]", "value": "235 mmHg and 240 mmHg"}, {"measurement": "Change", "setting": "[20]", "value": "20 mmHg and 30 mmHg"}, {"measurement": "Control Before AII", "setting": "[20]", "value": "215 mmHg and 225 mmHg"}, {"measurement": "Response After AII", "setting": "[20]", "value": "235 mmHg and 255 mmHg"}, {"measurement": "Control Before AII", "setting": "[7]", "value": 210, "unit": "mmHg"}, {"measurement": "Change", "setting": "[21]", "value": "20 mmHg and 30 mmHg"}, {"measurement": "Response After AII", "setting": "[21]", "value": "230 mmHg and 240 mmHg"}, {"measurement": "Change", "setting": "[8]", "value": 25, "unit": "mmHg"}, {"measurement": "Control Before AII", "setting": "[22]", "value": "210 mmHg and 230 mmHg"}, {"measurement": "Response After AII", "setting": "[22]", "value": "235 mmHg and 255 mmHg"}, {"measurement": "Change", "setting": "[23]", "value": "30 mmHg and 35 mmHg"}, {"measurement": "Control Before AII", "setting": "[23]", "value": "210 mmHg and 225 mmHg"}, {"measurement": "Response After AII", "setting": "[23]", "value": "240 mmHg and 260 mmHg"}, {"measurement": "Change", "setting": "[24]", "value": "20 mmHg and 25 mmHg"}, {"measurement": "Control Before AII", "setting": "[24]", "value": "225 mmHg and 240 mmHg"}, {"measurement": "Response After AII", "setting": "[24]", "value": "245 mmHg and 265 mmHg"}, {"measurement": "Change", "setting": "[11]", "value": 25, "unit": "mmHg"}, {"measurement": "Control Before AII", "setting": "[25]", "value": "220 mmHg and 230 mmHg"}, {"measurement": "Response After AII", "setting": "[25]", "value": "245 mmHg and 255 mmHg"}, {"measurement": "Change", "setting": "[26]", "value": "40 mmHg and 20 mmHg"}, {"measurement": "Control Before AII", "setting": "[26]", "value": "210 mmHg and 235 mmHg"}, {"measurement": "Response After AII", "setting": "[26]", "value": "250 mmHg and 255 mmHg"}, {"measurement": "Change", "setting": "[27]", "value": "32 mmHg and 25 mmHg"}, {"measurement": "Control Before AII", "setting": "[27]", "value": "210 mmHg and 235 mmHg"}, {"measurement": "Response After AII", "setting": "[27]", "value": "242 mmHg and 260 mmHg"}, {"measurement": "Change", "setting": "[28]", "value": "40 mmHg and 33 mmHg"}, {"measurement": "Control Before AII", "setting": "[28]", "value": "210 mmHg and 227 mmHg"}, {"measurement": "Response After AII", "setting": "[28]", "value": "250 mmHg and 260 mmHg"}]}]}
